In patent publication US20230192706A1, “BICYCLIC AMINES AS CDK2 INHIBITORS” (Incyte Corporation, priority 2021, published 2023):

Molecular target: T1, CDK2/Cyclin E1 (Homo sapiens, UniProt P24941)
T1 construct: full-length human CDK2 co-expressed as N-terminal GST-tagged protein; GST (N); purchased Carna 04-165; host or cells: baculovirus expression system
Test: CDK2/Cyclin E1 HTRF enzyme activity assay
Type: biochemical
Details: 1 mM ATP; CDK2/Cyclin E1 0.25 nM; 60 minutes at room temperature
Procedure: CDK2/Cyclin E1 enzyme activity assays utilize full-length human CDK2 co-expressed as N-terminal GST-tagged protein with FLAG-Cyclin E1 in a baculovirus expression system (Carna Product Number 04-165). Assays were conducted in white 384-well polystyrene plates in a final reaction volume of 8 µL. CDK2/Cyclin E1 (0.25 nM) was incubated with the compounds of the Examples (40 nL serially diluted in DMSO) in the presence of ATP (50 µM or 1 mM) and 50 nM ULight^Tm-labeled eIF4E-binding protein 1 (THR37/46) peptide (PerkinElmer) in assay buffer (containing 50 mM HEPES pH 7.5, 1 mM EGTA, 10 mM MgCl2, 2 mM DTT, 0.05 mg/mL BSA, and 0.01% Tween 20) for 60 minutes at room temperature. The reactions were stopped by the addition of EDTA and Europium-labeled anti-phospho-4E-BP1 antibody (PerkinElmer), for a final concentration of 15 mM and 1.5 nM, respectively. HTRF signals were read after 1 hour at room temperature on a PHERAstar FS plate reader (BMG Labtech). Data was analyzed with IDBS XLFit and GraphPad Prism 5.0 software using a three or four parameter dose response curve to determine IC50 for each compound.

IC50 [nM]	SMILES
< 10	CC(C)Oc1c(-c2cn[nH]c2)ncc2nc(N[C@H]3CCOC[C@H]3F)nn12 [Example 12, N-((3S,4S)-3-Fluorotetrahydro-2H-pyran-4-yl)-5-isopropoxy-6-(1H-pyrazol-4-yl)-[1,2,4]triazolo[1,5-α] pyrazin-2-amine]
< 10	F[C@@H]1COCC[C@@H]1Nc1nc2cnc(-c3cn[nH]c3)c(N3CCCCC3)n2n1 [Example 13, N-((3S,4S)-3-Fluorotetrahydro-2H-pyran-4-yl)-5-(piperidin-1-yl)-6-(1H-pyrazol-4-yl)-[1,2,4]triazolo[1,5-α]pyrazin-2-amine]
< 10	CC(C)Oc1c(-c2cn[nH]c2)ccn2nc(N[C@H]3CCOC[C@H]3F)nc12 [Example 5, N-((3S,4S)-3-Fluorotetrahydro-2H-pyran-4-yl)-8-isopropoxy-7-(1H-pyrazol-4-yl)-[1,2,4]triazolo[1,5-α]pyridin-2-amine]
< 10	F[C@@H]1COCC[C@@H]1Nc1nc2c(N3CCCC(F)(F)C3)c(-c3cn[nH]c3)ccn2n1 [Example 4, 8-(3,3-Difluoropiperidin-1-yl)-N-((3S,4S)-3-fluorotetrahydro-2H-pyran-4-yl)-7-(1H-pyrazol-4-yl)-[1,2,4]triazolo[1,5-α]pyridin-2-amine]
< 10	F[C@@H]1CCN(c2c(-c3cn[nH]c3)ccn3nc(N[C@H]4CCOC[C@H]4F)nc23)C1 [Example 3, 8—((R)—3-Fluoropyrrolidin-1-yl)-N((3S,4S)-3-fluorotetrahydro-2H-pyran-4-yl)-7-(1H-pyrazol-4-yl)-[1,2,4]triazolo[1,5-α]pyridin-2-amine]
< 10	C[C@H](Oc1c(-c2cn[nH]c2)ncc2nc(N[C@H]3CCOC[C@H]3F)nn12)C(F)(F)F [Example 8, N-((3S,4S)-3-Fluorotetrahydro-2H-pyran-4-yl)-6-(1H-pyrazol-4-yl)-5-(((5)-1,1,1-trifluoropropan-2-yl)oxy)-[1,2,4]triazolo[1,5-α]pyrazin-2-amine]

The remaining lines, values behind:

SMILES	IC50 [nM]
CC(C)Oc1c(-c2cn[nH]c2)ncn2nc(N[C@H]3CCOC[C@H]3F)nc12 [Example 7, N-((3S, 4S)-3-Fluorotetrahydro-2H-pyran-4-yl)-8-isopropoxy-7-(1H-pyrazol-4-yl)-[1,2,4]triazolo[1,5-c]pyrimidin-2-amine]	< 10
Cc1cc(-c2c(-c3cn[nH]c3)ccn3nc(NC4CCOCC4)nc23)ccc1C#N [Example 1, 4-(7-(1H-Pyrazol-4-yl)-2-((tetrahydro-2H-pyran-4-yl)aminoamino)-[1,2,4]triazolo[1,5-a]pyridin-8-yl)-2-methylbenzonitrile]	< 10
Cc1cc(-c2c(-c3cn[nH]c3)ccn3nc(N[C@H]4CCOC[C@H]4F)nc23)c(F)cc1C#N [Example 2, 5-Fluoro-4-(2-(((3S,4S)-3-fluorotetrahydro-2H-pyran-4-yl)amino)-7-(1H-pyrazol-4-yl)-[1,2,4]triazolo[1,5-a]pyridin-8-yl)-2-methylbenzonitrile]	< 10
FC(F)C1(Oc2c(-c3cn[nH]c3)ncc3nc(NC4CCOCC4)nn23)CCC1 [Example 11, 5-(1-(Difluoromethyl)cyclobutoxy)-6-(1H-pyrazol-4-yl)-N-(tetrahydro-2H-pyran-4-yl)-[1,2,4] triazolo [1,5-α] pyrazin-2-amine]	< 10
FC(F)C1(Oc2c(-c3cn[nH]c3)ncc3nc(N[C@H]4CCOC[C@H]4F)nn23)CCC1 [Example 10, 5-(1-(Difluoromethyl)cyclobutoxy)-N-((3S,4S)-3-fluorotetrahydro-2H-pyran-4-yl)-6-(1H-pyrazol-4-yl)-[1,2,4]triazolo[1,5-α]pyrazin-2-amine]	< 10
CC(C)Oc1c(-c2cn[nH]c2)ncn2nc(NC3CCOC(C)C3)nc12 (single isomer, unassigned) [Example 6, 8-Isopropoxy-N-(2-methyltetrahydro-2H-pyran-4-yl)-7-(1H-pyrazol-4-yl)-[1,2,4]triazolo[1,5-c]pyrimidin-2-amine]	< 10
C[C@@H](Oc1c(-c2cn[nH]c2)ncc2nc(N[C@H]3CCOC[C@H]3F)nn12)C(F)(F)F [Example 9, N-((3S,4S)-3-Fluorotetrahydro-2H-pyran-4-yl)-6-(1H-pyrazol-4-yl)-5—(((R)—1,1,1-trifluoropropan-2-yl)oxy)-[1,2,4]triazolo[1,5-α]pyrazin-2-amine]	< 10
